Laboratory results from US20230257385A1, “SALT AND SOLID FORMS OF TABERNANTHALOG” (priority 2021, published 2023).

Columns and labels:
[1] = SIF buffer solubility panel (FaSSIF, FeSSIF, FaSSGF); format: physicochemical; details: 37° C., up to 24 h (timepoints t=0, 1 h, 3 h, 6 h, 24 h)
[2] = DVS 0 to 90 to 0% RH (mass equilibrated); format: physicochemical
[3] = Amorphous study (freeze drying, evaporation, spray drying, bead milling) of monofumarate and sorbate; format: physicochemical; details: 50 mg
From the text: The purpose of this study was to generate amorphous material to be characterized and used in water activity studies. To achieve this, the two salts were exposed to a variety of techniques in attempts to generate the amorphous forms, including freeze drying, evaporation, vacuum desiccation and cryodesiccation spray drying. These techniques were not successful for the two salts Tabernanthalog·Monofumarate and Tabernanthalog·Sorbate.
Bead milling was attempted to generate the amorphous form of Tabernanthalog·Sorbate (Tabernanthalog·Sorbate, Form A). The salt underwent neat milling and separately with the addition of tetradecafluorohexane (TDFH). The following experiments were performed: Experiment 6-Sample A1 (30 Hz, 2 h), Experiment 6-Sample A2 (30 Hz, 5.5 h) and Experiment 6-Sample A3 (30 Hz 1 h, TDFH), the products from each experiment was analysed by XRPD to determine the extent of crystallinity (FIG. 812). None of the experiments provided amorphous material.
Each salt was charged to a 7 ml vial (50 mg, 1.0 wt). To the vial containing Tabernanthalog·Monofumarate (Tabernanthalog·Monofumarate), was charged water (10.0 vol), to fully dissolve the sample. Tabernanthalog·Sorbate (A1270-076-A1) was taken-up in ethanol/water (15% v/v, 10 vol), a further charge of water (1.0 ml), was added to ensure that the sample dissolved.
Vials containing the salt solutions were placed on the freeze drier apparatus overnight, and the cryo-desiccated products were recovered the following morning and analysed by XRPD each product remained crystalline.
Tabernanthalog·Monofumarate (A1272−082-A2, 51.1 mg, 1.0 wt) was charged to a 7 ml scintillation vial followed by THE (2 ml, […]), the suspension was heated to 50° C., until full dissolution was observed. The vial was stoppered by foil and a pin hole was pierced in the top. The vial was located under a steady N2 stream.
Tabernanthalog·Sorbate (A1270−076-A1, 99.4 mg, 1.0 wt) was charged to a 7 ml scintillation vial, followed by hexafluoroisopropanol (HFIPA, 5.0 vol, 0.5 ml), after which, the sample fully dissolved. The cap was replaced by foil and pierced on the top. Solvent was allowed to evaporate, to afford a dry, brown solid that was analysed by XRPD yielding crystalline pattern #7. Sample were dried under N2 stream for 5 h and reanalysed by XRPD, remaining as pattern #7
Tabernanthalog·Sorbate (A1270−076-A1, 50.0 mg, 1.0 wt) was charged to a 7 ml scintillation vial followed by hexafluoroisopropanol (HFIPA, 0.5 ml, 10 vol), to yield a clear solution. The solution was concentrated to dryness, by rotary evaporation, yielding an oil, that was allowed to stand undisturbed overnight.
Tabernanthalog·Sorbate (A1270−076-A1, 50.0 mg, 1.0 wt) was charged to a 7 ml scintillation vial, followed by methanol (300 μl, 6.0 vol). The solution was clarified by filtration into a 7 ml scintillation vial, containing diethyl ether (1.0 ml, 20.0 vol).
Tabernanthalog·Sorbate (A1270−076-A1, 102 mg, 1 wt) was charged to a 7.0 ml scintillation vial followed by methanol (1.9 ml, 19.0 vol). The solution was loaded into the spray drier apparatus.
The procedure yielded a brown powder (30 mg, 30% th.).
Tabernanthalog·Sorbate (A1270-076-A1, Form A) was charged to a 1.5 ml steel milling-vessel with a single 5 mm ball bearing. The sample was milled for 5.5 h at 30 Hz and yielded an off-white powder, that was analysed by XRPD, no change in crystallinity.

[4] = Thermal study: glass transition temperature (Tg) of amorphous monofumarate and sorbate; format: physicochemical
Experimental: Each salt was analysed by DSC and TGA to determine the Tg of the amorphous form. Amorphous forms were generated by thermocycling the salt past the melt temperature, cooling the sample, and once cooled the samples were reheated. Open pan and sealed pan DSC were utilised, open pan DSC were heated past the melt event, cooled, and left to stand under ambient conditions overnight.
Sealed pans were immediately cycled with no time left to stand.
TGA (open pan) samples were analysed by thermocycle, with no time for the sample to stand under ambient conditions.
The amorphous forms were generated in these studies and characterised with their Tg being measured.
A hot stage microscope heating block was used to generate the amorphous phase in-situ, to allow analysis by XRPD. A silicon XRPD sample plate was loaded with the appropriate salt. The plate was heated past the melt event, removed from the hot stage microscope block and cooled to ambient in air and analysed by XRPD to ensure that the amorphous form was generated. The amorphous material was then analysed by ^1H NMR and LC-MS to ensure there was no change in chemical composition.
Two DSC pans were charge with the appropriate salt (Tabernanthalog·Sorbate, A1270−076-A1 and Tabernanthalog·Monofumarate, Tabernanthalog·Monofumarate), the first DSC pan was not sealed (open pan DSC), the second was sealed (hermetic sealed pan DSC). The open pan DSC was cycled from 20° C. to just after the melt event for each, cooled to −20° C. and left to stand under ambient conditions over night. The open pan DSC was then heated to just before the thermal degradation event (Tabernanthalog·Sorbate ca. 160° C., Tabernanthalog·Monofumarate ca. 210° C.) The hermetic sealed DSC was heated from 20° C. to just after the melt event, cooled to −20° C. then headed to just before the same degradation event.
Two TGA crucibles were charged with the appropriate salt (Tabemanthalog·Sorbate, A1270-076-A1, Tabernanthalog·Monofumarate, Tabernanthalog·Monofumarate), both were thermocycled from 20° C. to past the melt event and then cooled to −20° C., each pan was then immediately heated to just before the degradation event to measure the Tg event.

[5] = Solubility determinations in SIF buffers FaSSIF, FeSSIF, FaSSGF (Example 8, Experiment 5)
Experimental: The temperature was maintained at 37° C. for 24 h. […] The suspensions were sampled at the relevant time points and centrifuged. The centrifuged pellets, obtained at the time points were analysed by XRPD as a wet pellet and dried, for evidence of form change.
The temperature was maintained at 37° C. for 24 h.
The suspension was sampled at the relevant time points and centrifuged. […] The centrifuged pellets, obtained at the time points were analyzed by XRPD as a wet pellet and dried, for evidence of form change.

[6] = Dynamic vapour sorption (DVS) of selected salts (Example 8); format: physicochemical; details: 0 to 90 to 0% RH, 25° C., dm/dt 0.002%/min
Experimental: DVS: The moisture sorption properties of the feed API were analyzed by DVS Intrinsic instrument (Surface Measurement System). Approximately 20-50 mg of API was weighed on an aluminum pan and loaded into the instrument equilibrated at 25° C. The sample was allowed to equilibrate under dry atmosphere (0% relative humidity) for 60 minutes before increasing the humidity from 0% to 30% at 5% step increment and from 30% to 90% at 10% step increment. A desorption cycle was also applied from 90% to 30% (10% step) and from 30% to 0% (5% decrement). A rate of change in mass per time unit (dm/dt) of 0.002%/min was set as the equilibrium parameter. Kinetic and isotherm graphs were calculated.

[7] = Equilibrium humidity evaluation 75% RH/40° C., 10 days (Example 8, Experiment 6); format: physicochemical
Experimental: The experimental procedure that accompany this experiment is provided in Section G.ii.
All forms were maintained under constant equilibrium humidity (75% RH). XRPD, DSC, TGA, PLM and ^1H NMR analyses were performed on the absorbents at t=5 d and t=10 d, to confirm their physical fates and to determine the extent of residual solvent exchange or sequestration.
100 mg portions of Tabernanthalog salts ([…]) were placed in the relevant open vials. The powders were finely divided and distributed evenly over the base of the vial, such that equal material coverage across the panel was observed. These samples were then maintained 40° C. under 75% RH. The samples were sub-sampled at intervals of 5 and 10 days and analyzed by ^1H NMR, HPLC, XRPD, DSC, TGA and PLM, for evidence of phase change or chemical degradation.

[8] = Amorphisation activity: Crash cool
[9] = Amorphisation activity: Freeze dry
[10] = each timepoint up to 24 h, 37° C.

## COc1ccc2c3c([nH]c2c1)CCN(C)CC3 [Pattern #6a (Form A)]
[1]
  solubility in FaSSGF: soluble
  solubility in FaSSIF: soluble
  solubility in FeSSIF: soluble
[2]; desorption, 0.0% RH
  DVS 0 to 90 to 0% RH (dm/dt <0.002%): 0.0381%
[2]; desorption, 5.0% RH
  DVS 0 to 90 to 0% RH (dm/dt <0.002%): 0.1179%
[2]; desorption, 10.0% RH
  DVS 0 to 90 to 0% RH (dm/dt <0.002%): 0.1551%
[2]; desorption, 15.0% RH
  DVS 0 to 90 to 0% RH (dm/dt <0.002%): 0.1857%
[2]; desorption, 20.0% RH
  DVS 0 to 90 to 0% RH (dm/dt <0.002%): 0.2126%
[2]; desorption, 25.0% RH
  DVS 0 to 90 to 0% RH (dm/dt <0.002%): 0.2387%
[2]; desorption, 30.0% RH
  DVS 0 to 90 to 0% RH (dm/dt <0.002%): 0.2656%
[2]; desorption, 40.0% RH
  DVS 0 to 90 to 0% RH (dm/dt <0.002%): 0.3210%
[2]; desorption, 50.0% RH
  DVS 0 to 90 to 0% RH (dm/dt <0.002%): 0.3797%
[2]; desorption, 60.0% RH
  DVS 0 to 90 to 0% RH (dm/dt <0.002%): 0.4515%
[2]; desorption, 70.0% RH
  DVS 0 to 90 to 0% RH (dm/dt <0.002%): 0.5442%
[2]; desorption, 80.0% RH
  DVS 0 to 90 to 0% RH (dm/dt <0.002%): 0.6827%
[2]; desorption, 90.0% RH
  DVS 0 to 90 to 0% RH (dm/dt <0.002%): 0.9766%
[2]; sorption, 0.0% RH
  DVS 0 to 90 to 0% RH (dm/dt <0.002%): 0.0004%
[2]; sorption, 5.0% RH
  DVS 0 to 90 to 0% RH (dm/dt <0.002%): 0.0627%
[2]; sorption, 10.0% RH
  DVS 0 to 90 to 0% RH (dm/dt <0.002%): 0.0957%
[2]; sorption, 15.0% RH
  DVS 0 to 90 to 0% RH (dm/dt <0.002%): 0.1397%
[2]; sorption, 20.0% RH
  DVS 0 to 90 to 0% RH (dm/dt <0.002%): 0.1778%
[2]; sorption, 25.0% RH
  DVS 0 to 90 to 0% RH (dm/dt <0.002%): 0.2093%
[2]; sorption, 30.0% RH
  DVS 0 to 90 to 0% RH (dm/dt <0.002%): 0.2401%
[2]; sorption, 40.0% RH
  DVS 0 to 90 to 0% RH (dm/dt <0.002%): 0.3145%
[2]; sorption, 50.0% RH
  DVS 0 to 90 to 0% RH (dm/dt <0.002%): 0.4051%
[2]; sorption, 70.0% RH
  DVS 0 to 90 to 0% RH (dm/dt <0.002%): 0.5451%
[2]; sorption, 80.0% RH
  DVS 0 to 90 to 0% RH (dm/dt <0.002%): 0.6660%
[2]; sorption, 90.0% RH
  DVS 0 to 90 to 0% RH (dm/dt <0.002%): 0.9766%

## COc1ccc2c3c([nH]c2c1)CCN(C)CC3.O=C(O)/C=C/C(=O)O [Tabernanthalog•Monofumarate]
[3]; [8]
  Form by XRPD: Pattern #3
  Outcome: Crystalline
[3]; [9]
  Form by XRPD: Pattern #1
  Outcome: Crystalline
[3]; Amorphisation activity: THF/N2
  Form by XRPD: Pattern #11
  Outcome: Crystalline
[4]; Hot plate heat up, sorbate 20 to 170 ° C., monofumarate 20 to 210 ° C.
  Outcome: Amorphous
[4]; Hot stage plate heat up, sorbate 20 to 170 ° C., monofumarate 20 to 210 ° C.
  Outcome: Almost Amorphous
[4]; Open Pan DSC, sorbate 20 to 165 to −20, O/N 20 to 230 ° C., monofumarate 20 to 210 to −20, O/N 20 to 210 ° C.
  Outcome: Amorphous
[4]; Sealed DSC, sorbate 20 to 165 to −20 to 230 ° C., monofumarate 20 to 210 to −20 to 210 ° C.
  Outcome: Amorphous
[4]; TGA, sorbate 20 to 165 to −20 to 230 ° C., monofumarate 20 to 210 to −20 to 210 ° C.
  Outcome: Amorphous
[4]; amorphous form generated in situ, sealed DSC thermocycle (Sample B1)
  Glass temperature (Tgs): 63 °C

## COc1ccc2c3c([nH]c2c1)CCN(C)CC3.O=C(O)c1ccccc1 [tabernanthalog benzoate salt]
[5]; FaSSIF, FeSSIF, FaSSGF, 37° C., 24 h
  behaviour at 30 mg/ml in SIF buffers: precipitated in all three SIF buffers
[5]; [10]
  stability of the suspended phase in FaSSIF (XRPD of pellet): stable and did not disproportionate in FaSSIF
  stability of the suspended phase in FeSSIF (XRPD of pellet): stable and did not disproportionate in FeSSIF
[5]; over the time points up to 24 h
  decrease in chemical purity of wet pellets in FaSSIF: ca. 1.22 % area
[5]; up to 24 h, 37° C.
  fate of the suspended phase in FaSSGF (XRPD, 1H NMR): consistent with benzoic acid
[1]
  solubility in FaSSGF: all dissolved except the tabernanthalog benzoate salt
  solubility in FaSSIF: all dissolved except the tabernanthalog benzoate salt
  solubility in FeSSIF: all dissolved except the tabernanthalog benzoate salt
[6]
  DVS sorption/desorption isotherm: slightly hygroscopic
[7]; 75% RH/40° C., after 10 days
  change in chemical purity (trended HPLC): did not decrease significantly
[7]; 75% RH/40° C., t=5 d and t=10 d
  water uptake / hydrate formation (TGA, DSC): no significant water uptake
[7]; 75% RH/40° C., t=5 days and t=10 days
  powder diffraction pattern versus input (form stability): consistent with the input
[7]; Benzoate salt, input before humidity exposure
  Tabernanthalog RRT = 1.00 (trended HPLC data, chemical purity): 98.56
